# Tested on: Male Wistar rats
# Assay: Enteropooling effect (intestinal fluid volume) in fasted rats
# Type: in vivo, rat
# Settings: intestinal fluid volume 30 min after administration, dose yielding a 50% increase relative to vehicle control; for ED50: Rattus norvegicus, 0.5 h
# Method: Male Wistar rats (Crj Wistar Rat, body weight: 180-200 g) were used. Animals were fasted for 24 hours with free access to water. 5 mL/kg of distilled water containing the compound 5, PGE1 or PGE2 was orally administrated (p.o.), or 2 mL/kg of physiological saline containing the compound 5 was injected intravenously (i.v.) to the animals. Thirty minutes after the administration, the animals were euthanized by cervical dislocation, and the abdominal cavity was opened surgically. The intestinal fluid was collected and its volume was measured. The dose of test substance yielding a 50% increase in intestinal fluid volume relative to the control group, which was received the vehicle only, was defined as the ED50 value.
compound,measurement,setting,value
CCCCC[C@H](O)/C=C/[C@H]1[C@H](O)CC(=O)[C@@H]1CCCCCCC(=O)O [PGE1],Enteropooling ED50,p.o. in distilled water,420 µg/kg
CCCCC[C@H](O)/C=C/[C@H]1[C@H](O)CC(=O)[C@@H]1C/C=C\CCCC(=O)O [PGE2],Enteropooling ED50,p.o. in distilled water,130 µg/kg
"CCCCC(F)(F)C(O)CC[C@H]1[C@H](O)CC(=O)[C@@H]1CCCCCCC(=O)O (stereo partly shown) [Compound 5, 13,14-dihydro-15RS-hydroxy-16,16-difluoro-PGE1]",ED50,"iv, i.v. in physiological saline",0.88 µg/kg
same,ED50,"po, p.o. in distilled water",0.6 µg/kg
